Consider one compound from patent US9850522B2, “One-step rapid assay for the detection of inhibitors of enzymes” (priority 2013, dated 2017).

Marks after values point to notes of the source that are not given here.

One assay deals with T1, AChE from eel (Electrophorus electricus, UniProt O42275).
T1 construct: purchased Sigma-Aldrich
The assay is described as follows: AChE test ticket, fluorescence (NMI substrate), reader hue ratio. It is filed as biochemical. Here is the method:
N-methyl indoxyl (NMI) acetate (100 mg, Sigma-Aldrich) was dissolved in 100 mil, 100% USP ethyl alcohol (Sigma-Aldrich) for a final concentration of […]. Strips of porous matrix Surewick Sample Pad C248 (Millipore) were saturated with this NMI solution and dried at 45° C. for two hours. The strips were then removed from the oven and stored in a resealable plastic bag with desiccant.
AChE from eel (Sigma-Aldrich) was dissolved to a final concentration of 2.2 units/mL in a buffer containing 10 mM potassium phosphate, 5% sucrose and 0.5% BSA at pH=7.4 and passed through a 0.22 μm filter. Strips of Millipore GFCP20300 glass fiber were pretreated by soaking with a mixture of 2% sucrose and 2% Triton in 6.25 mM borate buffer and dried at 45° C. in an oven for 2 hours. These glass fiber strips were then saturated with the solution of AChE and dried for 2 hours at 45° C. The strips were then removed from the oven and stored in a resealable plastic bag with desiccant.
To an adhesive-coated plastic backing, card (G&L) cut to 3×27 cm, is attached the fluid transfer membrane (nitrocellulose membrane) at a distance of 10 mm from the card bottom edge. The enzyme sample pad is attached flush to the bottom edge of the backing card overlapping the nitrocellulose membrane strip. The substrate pad is then attached flush to the other edge of the backing card (top edge), overlapping the nitrocellulose membrane. The assembled cards are then cut into 6.75 mm wide×16 mm long test strips using an automated guillotine cutter.
A stock solution (1 mg/mL) of the carbamate pesticide, oxamyl (Supelco), was prepared in methanol, then serially diluted in purified water to a final concentration of 0.1 mg/L for use as a test sample. […]
All tickets were then allowed to run for 15 minutes, then were inserted into a reader comprised of low light color cameras, 400 nm UV LED and custom color analysis software (FIG. 6). The reader calculates a ratio of the hue measured in the test sample site at the substrate pad to the hue measured in the negative control site at the substrate pad. […]

For a further assay, the target named is acetylcholinesterase (Electrophorus electricus, UniProt O42275). The assay is described as follows: Colorimetric test ticket, acetylcholinesterase strip. As to conditions: 1 ppm; positive result, lack of blue color. It is filed as biochemical.
Chain of acetylcholinesterase (O42275 24-633): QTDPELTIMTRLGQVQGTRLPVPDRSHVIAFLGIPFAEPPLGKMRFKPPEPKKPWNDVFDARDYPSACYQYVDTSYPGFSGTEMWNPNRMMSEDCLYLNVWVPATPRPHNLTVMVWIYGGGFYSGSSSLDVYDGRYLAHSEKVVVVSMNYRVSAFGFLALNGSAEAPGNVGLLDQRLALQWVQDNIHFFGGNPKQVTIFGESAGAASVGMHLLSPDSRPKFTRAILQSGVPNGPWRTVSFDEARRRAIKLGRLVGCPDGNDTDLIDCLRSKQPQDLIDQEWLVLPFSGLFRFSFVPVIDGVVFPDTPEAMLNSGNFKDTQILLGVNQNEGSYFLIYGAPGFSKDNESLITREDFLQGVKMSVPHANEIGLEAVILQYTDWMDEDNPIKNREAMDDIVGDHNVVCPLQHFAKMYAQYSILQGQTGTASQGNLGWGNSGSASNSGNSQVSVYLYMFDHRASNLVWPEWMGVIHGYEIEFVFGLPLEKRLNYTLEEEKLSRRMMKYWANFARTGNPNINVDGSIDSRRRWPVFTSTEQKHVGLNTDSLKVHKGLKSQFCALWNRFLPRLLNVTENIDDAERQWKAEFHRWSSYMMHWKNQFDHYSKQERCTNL

T1 sequence (O42275 24-633): as above

Turning to `CNC(=O)O/N=C(\SC)C(=O)N(C)C` [Oxamyl, oxamyl], the “Reactivity with AChE” value at AChE from eel is recorded as “reacts strongly with AChE”. For the same compound, the Fluorescence hue ratio at AChE from eel (tested with AChE, 0.1 mg/L in purified water, test sample well:control well, 15 minutes run) is recorded as 2.82*. Further, the Result entry on AChE from eel (tested with AChE, 0.1 mg/L, hue ratio cutoff of 1.25) is given as “Positive (a ratio greater than 1.25 is considered positive)”. For the same compound, on acetylcholinesterase, the “Result of colorimetric test ticket (FIG. 14 C)” value is given as “inhibits acetylcholinesterase”.
